Data on two molecules can be found in ChEMBL document CHEMBL4622965, “Structural Basis of Inhibition of Insulin-Regulated Aminopeptidase by a Macrocyclic Peptidic Inhibitor” (ACS Med Chem Lett, 2020).

Each structure is given as a SMILES string. Active and inactive are the calls of the source. No cut-off for these calls is given here.

Test [1] has as its target Endoplasmic reticulum aminopeptidase 2 (Homo sapiens, UniProt Q6P179). As to the kind of experiment: Inhibition of ERAP2 (unknown origin) using Arg-AMC as substrate by fluorescence based assay.
The target of test [2] is Endoplasmic reticulum aminopeptidase 1 (Homo sapiens, UniProt Q9NZ08). As to the kind of experiment: Inhibition of ERAP1 (unknown origin) using Leu-AMC as substrate by fluorescence based assay.
Sequence of Endoplasmic reticulum aminopeptidase 1 (Q9NZ08 whole entry): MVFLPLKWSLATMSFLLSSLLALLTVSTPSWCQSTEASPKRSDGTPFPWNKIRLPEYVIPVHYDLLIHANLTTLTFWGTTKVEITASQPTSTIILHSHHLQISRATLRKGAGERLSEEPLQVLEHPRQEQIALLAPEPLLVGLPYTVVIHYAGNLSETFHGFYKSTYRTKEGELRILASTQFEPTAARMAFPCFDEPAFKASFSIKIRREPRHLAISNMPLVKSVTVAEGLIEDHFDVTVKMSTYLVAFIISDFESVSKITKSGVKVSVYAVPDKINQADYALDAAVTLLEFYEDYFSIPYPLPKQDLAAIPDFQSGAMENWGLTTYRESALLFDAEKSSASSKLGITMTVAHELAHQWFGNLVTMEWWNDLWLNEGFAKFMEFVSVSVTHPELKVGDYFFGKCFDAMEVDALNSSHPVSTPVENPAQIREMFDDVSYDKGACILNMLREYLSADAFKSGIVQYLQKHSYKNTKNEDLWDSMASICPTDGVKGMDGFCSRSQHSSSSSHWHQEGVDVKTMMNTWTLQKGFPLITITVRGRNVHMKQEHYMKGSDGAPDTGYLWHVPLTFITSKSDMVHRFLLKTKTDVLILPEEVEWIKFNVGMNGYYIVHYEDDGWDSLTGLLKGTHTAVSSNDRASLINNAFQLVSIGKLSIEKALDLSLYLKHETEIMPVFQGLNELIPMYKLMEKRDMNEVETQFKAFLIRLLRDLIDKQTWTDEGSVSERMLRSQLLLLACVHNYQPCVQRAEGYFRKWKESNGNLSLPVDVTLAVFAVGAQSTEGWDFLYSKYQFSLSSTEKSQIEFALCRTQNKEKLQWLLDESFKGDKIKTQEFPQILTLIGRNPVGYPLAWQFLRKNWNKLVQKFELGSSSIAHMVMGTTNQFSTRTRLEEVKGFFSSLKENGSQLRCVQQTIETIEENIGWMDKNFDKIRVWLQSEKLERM

The IC50 is the concentration that gives 50% inhibition. High values mean weaker potency in that assay, low ones greater potency in that assay.

Sequence of Endoplasmic reticulum aminopeptidase 2 (Q6P179 whole entry): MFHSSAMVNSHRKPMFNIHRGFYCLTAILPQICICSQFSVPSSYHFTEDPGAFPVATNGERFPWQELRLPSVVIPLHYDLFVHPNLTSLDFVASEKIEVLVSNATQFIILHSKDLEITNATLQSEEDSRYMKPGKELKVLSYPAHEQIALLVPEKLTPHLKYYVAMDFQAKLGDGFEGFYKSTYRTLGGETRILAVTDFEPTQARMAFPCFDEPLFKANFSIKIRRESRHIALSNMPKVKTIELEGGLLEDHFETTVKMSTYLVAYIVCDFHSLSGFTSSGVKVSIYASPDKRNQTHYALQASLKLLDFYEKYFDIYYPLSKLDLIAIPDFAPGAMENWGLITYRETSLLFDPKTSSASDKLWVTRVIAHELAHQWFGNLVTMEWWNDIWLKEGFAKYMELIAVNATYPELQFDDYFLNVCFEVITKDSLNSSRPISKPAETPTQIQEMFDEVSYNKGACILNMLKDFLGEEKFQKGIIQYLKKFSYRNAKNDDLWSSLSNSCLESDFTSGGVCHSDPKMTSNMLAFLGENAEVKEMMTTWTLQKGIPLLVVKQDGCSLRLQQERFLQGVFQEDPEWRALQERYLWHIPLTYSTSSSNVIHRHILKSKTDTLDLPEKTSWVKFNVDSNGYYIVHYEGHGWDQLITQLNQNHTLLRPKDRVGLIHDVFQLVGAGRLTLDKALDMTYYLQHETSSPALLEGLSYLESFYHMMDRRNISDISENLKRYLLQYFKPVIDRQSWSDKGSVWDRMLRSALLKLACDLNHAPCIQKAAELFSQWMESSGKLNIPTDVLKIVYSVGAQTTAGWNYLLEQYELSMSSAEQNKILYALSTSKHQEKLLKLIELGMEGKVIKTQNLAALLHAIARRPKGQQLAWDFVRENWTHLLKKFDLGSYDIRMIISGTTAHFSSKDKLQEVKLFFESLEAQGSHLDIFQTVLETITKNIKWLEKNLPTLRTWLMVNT

In turn, `N[C@H]1CCSSC[C@@H](C(=O)NCc2ccccc2CC(=O)O)NC(=O)C[C@H](Cc2ccc(O)cc2)NC1=O` showed an IC50 in test [1] of 1.26 µM. Also, in test [2], the pIC50 entry was “inactive”.
As to `CC[C@H](C)[C@H](NC(=O)[C@H](Cc1ccc(O)cc1)NC(=O)[C@@H](N)C(C)C)C(=O)N[C@@H](Cc1cnc[nH]1)C(=O)N1CCC[C@H]1C(=O)N[C@@H](Cc1ccccc1)C(=O)O` [ANGIOTENSIN IV], the IC50 in test [1] was 7.94 µM; in test [2], 79.4 µM.
